Measured values as given in patent US8633200B2, “Inhibitors of human immunodeficiency virus replication” (priority 2010, dated 2014).
Counter-ions that a name gives are not always drawn.

Each molecule was assayed on recombinant NL-Rluc virus (NL4-3 with Renilla Luciferase gene) in MT-2 cells (assay: Inhibition of HIV replication (NL-Rluc luciferase reporter virus, MT-2 cells)). Conditions: NL43, 120 h, read-out: Activity.
Format: cell-based, human immunodeficiency virus (HIV)
With `Cc1nc2c(C)c(-c3ccccc3)nn2c(-c2cc(F)c3c(c2C)CCCO3)c1[C@H](OC(C)(C)C)C(=O)O` [Example 163, (2S)-2-(tert-Butoxy)-2-(7-(8-fluoro-5-methylchroman-6-yl)-3,5-dimethyl-2-phenylpyrazolo[1,5-a]pyrimidin-6-yl)acetic acid] the EC50 was under 0.1 µM.
Work on `Cc1nc2cc(-c3ccccc3)nn2c(-c2ccc3nccnc3c2)c1C(OC(C)(C)C)C(=O)O` (stereo not shown) [Example 74] yielded an EC50 of over 1 µM.
With `COc1ccc(-c2c(C(OC(C)(C)C)C(=O)O)c(C)nc3cc(-c4ccccc4)nn23)cc1` (stereo not shown) [Example 32] the EC50 was over 1 µM.
`Cc1nc2cc(-c3cccc(Oc4ccccc4)c3)nn2c(-c2cc(F)c3c(c2C)CCCO3)c1C(OC(C)(C)C)C(=O)O` (stereo not shown) [Example 97, 2-tert-Butoxy-2-(7-(8-fluoro-5-methylchroman-6-yl)-5-methyl-2-(3-phenoxyphenyl)pyrazolo[1,5-a]pyrimidin-6-yl)acetic acid, TFA salt] gave an EC50 of under 0.1 µM.
In the case of `Cc1nc2cc(-c3cccc(OCc4ccccc4)c3)nn2c(-c2cc(F)c3c(c2C)CCCO3)c1C(OC(C)(C)C)C(=O)O` (stereo not shown) [Example 93, 2-(2-(3-(Benzyloxy)phenyl)-7-(8-fluoro-5-methylchroman-6-yl)-5-methylpyrazolo[1,5-a]pyrimidin-6-yl)-2-tert-butoxyacetic acid, TFA salt], the EC50 is reported as under 0.1 µM.
Work on `COc1ccc(-c2c(C(OC(C)(C)C)C(=O)O)c(C)nc3cc(-c4ccccc4)nn23)c(F)c1` (stereo not shown) [Example 63] yielded an EC50 of over 1 µM.
Work on `Cc1nc2cc(-c3ccccc3)nn2c(-c2ccc(Cl)cc2F)c1C(OC(C)(C)C)C(=O)O` (stereo not shown) [Example 27] yielded an EC50 of over 1 µM.
`Cc1nc2c(C)c(-c3cccc(-c4cccc(F)c4)c3)nn2c(-c2cc(F)c3c(c2C)CCCO3)c1[C@H](OC(C)(C)C)C(=O)O` [Example 164, (2S)-2-(tert-Butoxy)-2-(7-(8-fluoro-5-methylchroman-6-yl)-2-(3′-fluoro-[1,1′-biphenyl]-3-yl)-3,5-dimethylpyrazolo[1,5-a]pyrimidin-6-yl)acetic acid] was tested, and the EC50 was under 0.1 µM.
`Cc1ccccc1-c1cccc(-c2cc3nc(C)c([C@H](OC(C)(C)C)C(=O)O)c(-c4cc(F)c5c(c4C)CCCO5)n3n2)c1` [Example 115, (2S)-2-(tert-Butoxy)-2-(7-(8-fluoro-5-methylchroman-6-yl)-5-methyl-2-(2′-methyl-[1,1′-biphenyl]-3-yl)pyrazolo[1,5-a]pyrimidin-6-yl)acetic acid] showed an EC50 of under 0.1 µM.
`Cc1nc2cc(-c3ccccc3)nn2c(-c2ccc(C(F)(F)F)cc2)c1C(OC(C)(C)C)C(=O)O` (stereo not shown) [Example 15] was tested, and the EC50 was over 1 µM.
In the case of `Cc1nc2c(Br)c(-c3ccccc3)nn2c(-c2cc(F)c3c(c2C)CCCO3)c1[C@H](OC(C)(C)C)C(=O)O` [Example 138, (2S)-2-(3-Bromo-7-(8-fluoro-5-methylchroman-6-yl)-5-methyl-2-phenylpyrazolo[1,5-a]pyrimidin-6-yl)-2-(tert-butoxy)acetic acid], the EC50 is reported as 0.1 to 1 µM.
Work on `Cc1nc2cc(-c3ccccc3)nn2c(-c2ccc3c(c2)OCO3)c1C(OC(C)(C)C)C(=O)O` (stereo not shown) [Example 30] yielded an EC50 of over 1 µM.
`Cc1nc2c(C)c(-c3cccc(Cl)c3)nn2c(-c2cc(F)c3c(c2C)CCCO3)c1[C@H](OC(C)(C)C)C(=O)O` [Example 158, (2S)-2-(tert-Butoxy)-2-(2-(3-chlorophenyl)-7-(8-fluoro-5-methylchroman-6-yl)-3,5-dimethylpyrazolo[1,5-a]pyrimidin-6-yl)acetic acid] gave an EC50 of 0.1 to 1 µM.
`Cc1ccc(-c2cc3nc(C)c(C(OC(C)(C)C)C(=O)O)c(-c4ccc5c(c4)CCCO5)n3n2)cc1` (stereo not shown) [Example 47] showed an EC50 of under 0.1 µM.
For `Cc1nc2cc(-c3ccccc3)nn2c(-c2ccc(N(C)C)cc2)c1C(OC(C)(C)C)C(=O)O` (stereo not shown) [Example 75], the EC50 was over 1 µM.
`Cc1ccc(-c2c(C(OC(C)(C)C)C(=O)O)c(C)nc3cc(-c4ccccc4)nn23)c(F)c1` (stereo not shown) [Example 54] showed an EC50 of 0.1 to 1 µM.
Work on `Cc1nc2cc(-c3ccccc3)nn2c(-c2ccccc2)c1C(OC(C)(C)C)C(=O)O` (stereo not shown) [Example 10] yielded an EC50 of over 1 µM.
Molecule `Cc1nc2cc(-c3ccccc3)nn2c(-c2ccc(C(C)(C)C)cc2)c1C(OC(C)(C)C)C(=O)O` (stereo not shown) [Example 66] has an EC50 of over 1 µM.
Work on `COc1ccc(-c2c(C(OC(C)(C)C)C(=O)O)c(C)nc3cc(-c4ccccc4)nn23)cc1C(F)(F)F` (stereo not shown) [Example 29] yielded an EC50 of over 1 µM.
For `Cc1nc2cc(-c3ccccc3)nn2c(-c2ccc(C#N)cc2)c1C(OC(C)(C)C)C(=O)O` (stereo not shown) [Example 13], the EC50 was over 1 µM.
In the case of `COc1cccc(-c2cccc(-c3cc4nc(C)c([C@H](OC(C)(C)C)C(=O)O)c(-c5cc(F)c6c(c5C)CCCO6)n4n3)c2)c1` [Example 129, (2S)-2-(tert-Butoxy)-2-(7-(8-fluoro-5-methylchroman-6-yl)-2-(3′-methoxy-[1,1′-biphenyl]-3-yl)-5-methylpyrazolo[1,5-a]pyrimidin-6-yl)acetic acid, TFA salt], the EC50 is reported as under 0.1 µM.
In the case of `Cc1nc2cc(-c3cccc(OCc4ccccc4)c3)nn2c(-c2cc(F)c3c(c2C)CCCO3)c1[C@H](OC(C)(C)C)C(=O)O` [Example 94, (2S)-2-(2-(3-(Benzyloxy)phenyl)-7-(8-fluoro-5-methylchroman-6-yl)-5-methyl-pyrazolo[1,5-a]pyrimidin-6-yl)-2-tert-butoxyacetic acid], the EC50 is reported as under 0.1 µM.
For `Cc1nc2cc(-c3ccccc3)nn2c(-c2ccc3c4c(cccc24)CC3)c1C(OC(C)(C)C)C(=O)O` (stereo not shown) [Example 65], the EC50 was over 1 µM.
For `Cc1nc2cc(-c3ccccc3)nn2c(-c2ccncc2)c1C(OC(C)(C)C)C(=O)O` (stereo not shown) [Example 21], the EC50 was over 1 µM.
Work on `Cc1ccc(-c2c(C(OC(C)(C)C)C(=O)O)c(C)nc3cc(-c4ccccc4)nn23)cc1C` (stereo not shown) [Example 1, 2-tert-Butoxy-2-(7-(3,4-dimethylphenyl)-5-methyl-2-phenylpyrazolo[1,5-a]pyrimidin-6-yl)acetic acid, TFA salt] yielded an EC50 of over 1 µM.
With `Cc1nc2c(Cl)c(C)nn2c(-c2ccc3c(c2)CCCO3)c1C(OC(C)(C)C)C(=O)O` (stereo not shown) [Example 144, 2-(tert-Butoxy)2-(3-chloro-7-(chroman-6-yl)-2,5-dimethylpyrazolo[1,5-a]pyrimidin-6-yl)acetic acid] the EC50 was 0.1 to 1 µM.
Work on `Cc1cc(-c2cccc(-c3cc4nc(C)c([C@H](OC(C)(C)C)C(=O)O)c(-c5cc(F)c6c(c5C)CCCO6)n4n3)c2)ccc1F` [Example 165, (2S)-2-(tert-Butoxy)-2-(2-(4′-fluoro-3′-methyl-[1,1′-biphenyl]-3-yl)-7-(8-fluoro-5-methylchroman-6-yl)-5-methylpyrazolo[1,5-a]pyrimidin-6-yl)acetic acid] yielded an EC50 of under 0.1 µM.
`Cc1nc2cc(-c3ccccc3)nn2c(-c2ccc3[nH]ccc3c2)c1C(OC(C)(C)C)C(=O)O` (stereo not shown) [Example 70] was tested, and the EC50 was over 1 µM.
With `Cc1nc2cc(-c3ccccc3)nn2c(-c2ccc(O)cc2)c1C(OC(C)(C)C)C(=O)O` (stereo not shown) [Example 20] the EC50 was over 1 µM.
With `COc1ccc(COc2cccc(-c3cc4nc(C)c(C(OC(C)(C)C)C(=O)O)c(-c5cc(F)c6c(c5C)CCCO6)n4n3)c2)cc1` (stereo not shown) [Example 103, 2-tert-Butoxy-2-(7-(8-fluoro-5-methylchroman-6-yl)-2-(3-(4-methoxybenzyloxy)phenyl)-5-methylpyrazolo[1,5-a]pyrimidin-6-yl)acetic acid, TFA salt] the EC50 was under 0.1 µM.
Work on `Cc1nc2c(-c3cc(F)c4c(c3C)CCCO4)c(-c3ccccc3)nn2c(-c2cc(F)c3c(c2C)CCCO3)c1C(OC(C)(C)C)C(=O)O` (stereo not shown) [Example 137, 2-(3,7-Bis(8-fluoro-5-methylchroman-6-yl)-5-methyl-2-phenylpyrazolo[1,5-a]pyrimidin-6-yl)-2-(tert-butoxy)acetic acid] yielded an EC50 of over 1 µM.
With `Cc1nc2cc(-c3ccccc3)nn2c(-c2ccccc2OC(F)(F)F)c1C(OC(C)(C)C)C(=O)O` (stereo not shown) [Example 7] the EC50 was over 1 µM.
With `Cc1nc2cc(-c3ccc4c(c3)CCCC4)nn2c(-c2ccc3c4c(ccnc24)CCO3)c1[C@H](OC(C)(C)C)C(=O)O` [Example 154, (2S)-2-(tert-Butoxy)-2-(7-(2,3-dihydropyrano[4,3,2-de]quinolin-7-yl)-5-methyl-2-(5,6,7,8-tetrahydronaphthalen-2-yl)pyrazolo[1,5-a]pyrimidin-6-yl)acetic acid] the EC50 was over 1 µM.
In the case of `Cc1nc2cc(-c3ccccc3)nn2c(-c2ccc3c4c(ccnc24)CCO3)c1C(OC(C)(C)C)C(=O)O` (stereo not shown) [Example 37], the EC50 is reported as over 1 µM.
In the case of `Cc1nc2c(C)c(-c3cccc(-c4ccc5c(cnn5C)c4)c3)nn2c(-c2cc(F)c3c(c2C)CCCO3)c1[C@H](OC(C)(C)C)C(=O)O` [Example 161, (2S)-2-(tert-Butoxy)-2-(7-(8-fluoro-5-methylchroman-6-yl)-3,5-dimethyl-2-(3-(1-methyl-1H-indazol-5-yl)phenyl)pyrazolo[1,5-a]pyrimidin-6-yl)acetic acid], the EC50 is reported as under 0.1 µM.
For `Cc1ccc(-c2c(C(OC(C)(C)C)C(=O)O)c(C)nc3c(-c4cccc(Cl)c4)cnn23)c(Cl)c1` (stereo not shown) [Example 134, 2-tert-Butoxy-2-(7-(2-chloro-4-methylphenyl)-3-(3-chlorophenyl)-5-methylpyrazolo[1,5-a]pyrimidin-6-yl)acetic acid], the EC50 was over 1 µM.
With `Cc1ccc(-c2c(C(OC(C)(C)C)C(=O)O)c(C)nc3cc(-c4ccccc4)nn23)cn1` (stereo not shown) [Example 77] the EC50 was over 1 µM.
In the case of `Cc1ccc(-c2c([C@H](OC(C)(C)C)C(=O)O)c(C)nc3cc(-c4cccc(Cl)c4)nn23)cc1` [Example 148, (S)-2-(tert-Butoxy)-2-(2-(3-chlorophenyl)-5-methyl-7-(p-tolyl)pyrazolo[1,5-a]pyrimidin-6-yl)acetic acid], the EC50 is reported as 0.1 to 1 µM.
Work on `Cc1nc2cc(-c3ccccc3)nn2c(-c2ccccc2Cl)c1C(OC(C)(C)C)C(=O)O` (stereo not shown) [Example 55] yielded an EC50 of over 1 µM.
`Cc1nc2cc(-c3ccc(OCc4ccccc4)nc3)nn2c(-c2cc(F)c3c(c2C)CCCO3)c1C(OC(C)(C)C)C(=O)O` (stereo not shown) [Example 108, 2-(2-(6-(Benzyloxy)pyridin-3-yl)-7-(8-fluoro-5-methylchroman-6-yl)-5-methylpyrazolo[1,5-a]pyrimidin-6-yl)-2-tert-butoxyacetic acid, TFA salt] showed an EC50 of under 0.1 µM.

Same assay, conditions: NL43, 120 h, read-out: EC50 μM
`Cc1nc2c(C)c(-c3ccccc3)nn2c(-c2cc(F)c3c(c2C)CCCO3)c1[C@H](OC(C)(C)C)C(=O)O` [Example 163, (2S)-2-(tert-Butoxy)-2-(7-(8-fluoro-5-methylchroman-6-yl)-3,5-dimethyl-2-phenylpyrazolo[1,5-a]pyrimidin-6-yl)acetic acid] was tested, and the EC50 was 0.2 µM.
With `Cc1nc2cc(-c3cccc(Oc4ccccc4)c3)nn2c(-c2cc(F)c3c(c2C)CCCO3)c1C(OC(C)(C)C)C(=O)O` (stereo not shown) [Example 97, 2-tert-Butoxy-2-(7-(8-fluoro-5-methylchroman-6-yl)-5-methyl-2-(3-phenoxyphenyl)pyrazolo[1,5-a]pyrimidin-6-yl)acetic acid, TFA salt] the EC50 was 0.06 µM.
Molecule `Cc1nc2cc(-c3cccc(OCc4ccccc4)c3)nn2c(-c2cc(F)c3c(c2C)CCCO3)c1C(OC(C)(C)C)C(=O)O` (stereo not shown) [Example 93, 2-(2-(3-(Benzyloxy)phenyl)-7-(8-fluoro-5-methylchroman-6-yl)-5-methylpyrazolo[1,5-a]pyrimidin-6-yl)-2-tert-butoxyacetic acid, TFA salt] has an EC50 of 0.1 µM.
With `Cc1ccccc1-c1cccc(-c2cc3nc(C)c([C@H](OC(C)(C)C)C(=O)O)c(-c4cc(F)c5c(c4C)CCCO5)n3n2)c1` [Example 115, (2S)-2-(tert-Butoxy)-2-(7-(8-fluoro-5-methylchroman-6-yl)-5-methyl-2-(2′-methyl-[1,1′-biphenyl]-3-yl)pyrazolo[1,5-a]pyrimidin-6-yl)acetic acid] the EC50 was 0.02 µM.
`Cc1ccc(-c2cc3nc(C)c(C(OC(C)(C)C)C(=O)O)c(-c4ccc5c(c4)CCCO5)n3n2)cc1` (stereo not shown) [Example 47] gave an EC50 of 0.08 µM.
Molecule `Cc1ccc(-c2c([C@H](OC(C)(C)C)C(=O)O)c(C)nc3cc(-c4cccc(Cl)c4)nn23)cc1` [Example 148, (S)-2-(tert-Butoxy)-2-(2-(3-chlorophenyl)-5-methyl-7-(p-tolyl)pyrazolo[1,5-a]pyrimidin-6-yl)acetic acid] has an EC50 of 0.88 µM.
